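In this assay, cells in 96-well plates receive the compound at five concentrations for 48 hours. Endpoints are linearly interpolated between the surrounding concentrations. Here, GI50 denotes the concentration required for 50% inhibition of growth.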 Active and inactive are the calls of the source. Cut-off read from the data, not from the text of the source: active = GI50 up to about 1.1 µM and inactive = higher.
Tests used:
Experiment in all cases: DTP human tumour cell line panel, 48 h
[1] = system: NCI-H460
[2] = system: 786-0
[3] = system: SR
[4] = system: OVCAR-8
[5] = system: SK-MEL-5
[6] = system: KM12
[7] = system: OVCAR-3
[8] = system: OVCAR-4
[9] = system: IGROV-1
[10] = system: RPMI-8226
[11] = system: SW-620
[12] = system: HCT-116
[13] = system: Malme-3M
[14] = system: SK-OV-3
[15] = system: A549
[16] = system: SF-268
[17] = system: LOX IMVI
[18] = system: CAKI-1

Measured: GI50

O=[N+]([O-])c1cccc(C2=NOC3C4CCC(C4)C23)c1 (stereo not given)
inactive: [1] > 100 µM | [2] > 100 µM | [3] > 100 µM | [4] > 100 µM | [5] > 100 µM | [6] > 100 µM | [7] > 100 µM | [8] > 100 µM | [9] > 100 µM | [10] > 100 µM | [11] 22.3 µM | [12] > 100 µM | [13] > 100 µM | [14] > 100 µM | [15] > 100 µM | [16] > 100 µM

CCCN1CC=CCC1
inactive: [1] > 100 µM | [2] > 100 µM | [3] > 100 µM | [17] > 100 µM | [4] > 100 µM | [5] > 100 µM | [6] > 100 µM | [7] > 100 µM | [9] > 100 µM | [10] > 100 µM | [11] > 100 µM | [12] > 100 µM | [13] > 100 µM | [14] > 100 µM | [15] > 100 µM | [16] > 100 µM

Oc1cc(-c2ccccn2)nc2cccc(F)c12
inactive: [1] > 100 µM | [2] > 100 µM | [3] > 100 µM | [17] 89.9 µM | [4] > 100 µM | [5] 61.4 µM | [6] > 100 µM | [7] > 100 µM | [8] > 100 µM | [9] > 100 µM | [10] > 100 µM | [11] > 100 µM | [14] > 100 µM | [15] > 100 µM

Cc1cc(Cl)ccc1NC(=O)C(=O)Cc1occc(=O)c1O
inactive: [1] > 100 µM | [2] > 100 µM | [3] > 100 µM | [17] > 100 µM | [4] > 100 µM | [5] > 100 µM | [6] > 100 µM | [8] > 100 µM | [18] > 100 µM | [9] > 100 µM | [10] > 100 µM | [11] > 100 µM | [12] > 100 µM | [13] > 100 µM | [14] > 100 µM | [15] > 100 µM | [16] > 100 µM

Cc1c(C(=O)/C=C/c2ccco2)[n+]([O-])c2ccccc2[n+]1[O-]
inactive: [1] > 100 µM | [2] > 100 µM | [3] 55.2 µM | [17] > 100 µM | [4] > 100 µM | [6] > 100 µM | [7] > 100 µM | [18] > 100 µM | [9] > 100 µM | [10] 41.8 µM | [11] > 100 µM | [12] > 100 µM | [13] > 100 µM | [14] > 100 µM | [15] > 100 µM | [16] > 100 µM

Cc1cc(N(CCC#N)CCC#N)ccc1/C=C1N=C(/C=C/c2ccccc2)N(c2ccc(S(N)(=O)=O)cc2)C\1=O
inactive: [1] > 100 µM | [2] > 100 µM | [3] > 100 µM | [17] > 100 µM | [4] > 100 µM | [5] > 100 µM | [6] > 100 µM | [7] > 100 µM | [8] > 100 µM | [18] > 100 µM | [9] > 100 µM | [10] 34.3 µM | [11] > 100 µM | [12] > 100 µM | [13] > 100 µM | [14] > 100 µM | [15] > 100 µM | [16] > 100 µM

COC(=O)C(=O)C(C(C)=O)C(=O)NCc1ccccc1 (stereo not given)
inactive: [1] > 100 µM | [2] > 100 µM | [3] > 100 µM | [17] 50.1 µM | [4] > 100 µM | [5] > 100 µM | [6] > 100 µM | [7] > 100 µM | [8] > 100 µM | [18] > 100 µM | [9] > 100 µM | [10] > 100 µM | [11] 5.06 µM | [12] > 100 µM | [13] > 100 µM | [15] > 100 µM | [16] > 100 µM

CCc1cccc(C(C)CC)c1NC(=O)C(=O)Cc1nc2ccccc2o1 (stereo not given)
inactive: [1] > 50 µM | [2] > 50 µM | [17] > 50 µM | [4] > 50 µM | [5] > 50 µM | [6] > 50 µM | [7] > 50 µM | [8] > 50 µM | [18] > 50 µM | [9] > 50 µM | [10] > 50 µM | [11] > 50 µM | [12] > 50 µM | [13] > 50 µM | [14] > 50 µM | [15] > 50 µM | [16] > 50 µM

CCC1CN2CCc3c([nH]c4ccccc34)C2C[C@@H]1CC(=O)N(C)C (stereo not given in full)
inactive: [1] > 100 µM | [2] > 100 µM | [3] 78.7 µM | [17] > 100 µM | [4] > 100 µM | [5] > 100 µM | [6] > 100 µM | [7] > 100 µM | [8] > 100 µM | [9] > 100 µM | [11] > 100 µM | [12] > 100 µM | [13] > 100 µM | [14] 39.6 µM | [15] > 100 µM | [16] > 100 µM

COC(=O)CCC(NC(=S)N/N=C(\C)c1cnc2ccccc2n1)C(=O)OC (stereo not given)
inactive: [1] 45.9 µM | [2] 43.6 µM | [3] 15.1 µM | [17] 23.2 µM | [4] 46.9 µM | [5] 21.2 µM | [6] 26 µM | [7] 42.8 µM | [8] 25.9 µM | [9] 35.4 µM | [10] 11.1 µM | [11] 20.8 µM | [12] 18.3 µM | [13] 41.3 µM | [14] 76.9 µM | [15] 34.8 µM | [16] 29.7 µM

COc1ccc2oc3c4c2c1CCC4CCC3=O (stereo not given)
inactive: [1] > 100 µM | [2] > 100 µM | [3] > 100 µM | [17] > 100 µM | [4] 59.4 µM | [5] > 100 µM | [6] > 100 µM | [7] > 100 µM | [8] 33 µM | [9] > 100 µM | [10] > 100 µM | [11] > 100 µM | [13] > 100 µM | [14] > 100 µM | [15] > 100 µM | [16] 85.9 µM

CC1=NN(C(=O)Cc2ccccc2)C(=O)/C1=C\c1ccco1
inactive: [2] > 100 µM | [3] > 100 µM | [17] > 100 µM | [4] > 100 µM | [5] > 100 µM | [6] > 100 µM | [7] > 100 µM | [8] > 100 µM | [18] > 100 µM | [10] > 100 µM | [11] > 100 µM | [12] > 100 µM | [13] > 100 µM | [15] > 100 µM | [16] > 100 µM

O=C1/C(=N/c2ccc(Nc3ccccc3)cc2)Oc2ccccc21
inactive: [1] 5.31 µM | [2] 1.88 µM | [3] 2.15 µM | [17] 2.34 µM | [4] 2.64 µM | [5] 4.68 µM | [6] 2.14 µM | [7] 1.97 µM | [8] 2.33 µM | [18] 1.85 µM | [9] 3.06 µM | [11] 2.36 µM | [12] 1.67 µM | [13] 2.99 µM | [14] 5.98 µM | [15] 3.51 µM | [16] 2.88 µM

O=C(Cc1ccccc1)N/N=C(\C1=Nc2ccc([N+](=O)[O-])cc2NC1O)C(O)c1ccc([N+](=O)[O-])cc1 (stereo not given)
inactive: [1] > 100 µM | [2] > 100 µM | [3] > 100 µM | [17] 25.8 µM | [4] > 100 µM | [5] 68.9 µM | [7] > 100 µM | [8] > 10 µM | [18] > 100 µM | [9] > 100 µM | [10] 44.4 µM | [11] 80 µM | [12] > 100 µM | [13] > 100 µM | [14] > 100 µM | [15] > 100 µM | [16] > 100 µM

COc1ccc(/C=C\c2cc(OC)c3c(c2)OCO3)c(O)c1O
inactive: [1] 5.37 µM | [2] 3.26 µM | [3] 3.78 µM | [17] 4.53 µM | [4] 5.53 µM | [5] 2.3 µM | [6] 5.62 µM | [7] 4.78 µM | [8] 4.52 µM | [18] 2.79 µM | [9] 4.71 µM | [10] 2.56 µM | [11] 8.3 µM | [12] 6.95 µM | [13] 13.4 µM | [14] 18.6 µM | [15] 9.04 µM | [16] 4.47 µM

COc1ccc(C(=O)Cc2c(C(=O)c3ccccc3)c3ccccc3n2C(=O)c2ccccc2)cc1
inactive: [1] 26.4 µM | [2] > 100 µM | [3] 23.8 µM | [4] > 100 µM | [5] 17.7 µM | [6] 53.8 µM | [7] 37.7 µM | [8] 32.2 µM | [18] > 100 µM | [9] > 100 µM | [10] 11.9 µM | [11] 29.8 µM | [12] 37.2 µM | [13] > 100 µM | [15] 35.7 µM | [16] > 100 µM

Cc1ccc(Oc2ccc(C)cc2N)cc1
inactive: [1] > 100 µM | [2] 86.9 µM | [3] 57.9 µM | [17] > 100 µM | [4] > 100 µM | [5] 44.1 µM | [6] > 100 µM | [7] 36 µM | [8] 68.9 µM | [9] > 100 µM | [10] 97.9 µM | [11] > 100 µM | [12] > 100 µM | [13] > 100 µM | [14] > 100 µM | [15] > 100 µM | [16] 97.7 µM

— ChEMBL document CHEMBL1201862, “PubChem BioAssay data set” (2004)
